Consider 14 compounds from patent US9540397B2, “BACE1 inhibitors” (Hoffmann-La Roche Inc., priority 2014, dated 2017).

Test [1] deals with Aβ40 in brain of wild-type mice. As to the kind of experiment: Lowering of Aβ40 in brain of wild-type mice. Type of test: in vivo. The note with it: Mus musculus, po; female C57Bl/6J mice, 30 mg/kg per os, 4 h; brain Aβ40 related to the value in the vehicle group; read-out: Aβ40 (wt mice, brain). The protocol: Lowering of Aβ40 in Brain of Wild-Type Mice:
Animals and Housing Conditions.
Animals were maintained in a 12/12 h light/dark cycle, with lights starting at 6 a.m., and experiments were conducted during the light phase. Animal housing and experimental procedures were in line with ethical and legal guidelines and were authorized by local veterinary authorities.
Experiment. Female C57Bl/6J mice were treated with a dose of 30 mg/kg of the compounds, 3-4 animals per treatment group. The test compound was dissolved in 5% EtOH, 10% Solutol, and was applied per os at 10 mL/kg. After 4 h, the animals were sacrificed and brain and plasma were collected. The brain was cut into halves and immediately frozen on dry ice. Brain was used for measurement of Aβ40 and plasma was used for determination of compound exposure. […] Brain tissue was homogenized in 2% DEA buffer in a Roche MagnaLyser (20″, 4000 rpm) and subsequently centrifuged for 1 h at 100000 g. DEA was reduced to 0.2% in 50 mM NaCl and one-half of the DEA lysate was passed over an Oasis Solid phase extraction plate (Waters; cat. no. 186000679), which had been activated with MeOH and equilibrated in dH2O (1 mL each). After washes in 10% and 30% MeOH (1 mL each), the Aβ-peptides were eluted in 0.8 mL of 2% NH4OH in 90% MeOH. The eluate was dried over a N2 flow, and the dried sample was reconstituted in 30 μL of AlphaLISA assay buffer. Aβ40 was determined by an AlphaLISA assay (Perkin-Elmer). In a white 96-well, half area microplate (Perkin-Elmer cat. no. 6005561), 20 μL of the reconstituted sample were mixed with 5 μL of biotinylated BAP-24 (specific for C-terminus of Aβ40) (Brockhaus, M.; Grunberg, J.; Rohrig, S.; Loetscher, H.; Wittenburg, N.; Baumeister, R.; Jacobsen, H.; Haass, C. Caspasemediated cleavage is not required for the activity of presenilins in amyloidogenesis and NOTCH signaling. NeuroReport 1998, 9, 1481-1486.) stock=4.4 mg/mL, f.c.5.5 μg/mL), and 5 μL 252Q6 acceptor beads (252Q6 antibody, Invitrogen AMB0062) had been previously conjugated with AlphaLISA Acceptor beads (Perkin-Elmer cat. no. 6772002); final dilution 1:500). The mix was incubated for 1 h at RT in the dark. Then 20 μL of Streptavin-coated Donor Beads (Perkin-Elmer cat. no. 6760002, final dilution 1:125) were added and this final mix was incubated in the dark for another 30 min at RT before RFU was measured in an AlphaScreen Reader (Perkin-Elmer Envision 2104). The value obtained for Aβ40 in the treated animals was related to the value in the vehicle group and is given in %. Alternatively a commercial ELISA was used for Aβ40 determination (Wako ELISA: (“Human/Rat β Amyloid (40) ELISA kit Wako II”; cat nr. 294-64701) following the manufacture's instruction. Also here the Aβ-lowering efficacy was calculated as percentage of the vehicle group.

A further test has as its target T1, BACE1 (Homo sapiens, UniProt P56817).
T1 construct: endogenous in cells; host or cells: HEK293 APP cells
As to the kind of experiment: Cellular Aβ-lowering assay (Abeta 40 AlphaLISA, HEK293 APP cells). Type of test: cell-based. The conditions noted are these: 18-20 hrs incubation, Aβ40 in culture supernatant, read-out: BACE1 cell act. Aβ40 IC50. The protocol: Cellular Aβ-lowering assay:
The Abeta 40 AlphaLISA Assay can be used. The HEK293 APP cells were seeded in 96 well Microtiter plates in cell culture medium (Iscove's, plus 10% (v/v) fetal bovine serum, penicillin/streptomycin) to about 80% confluency and the compounds were added at a 3× concentration in ⅓ volume of culture medium (final DMSO concentration was kept at 1% v/v). After 18-20 hrs incubation at 37° C. and 5% CO2 in a humidified incubator, the culture supernatants were harvested for the determination of AP 40 concentrations using Perkin-Elmer Human Amyloid beta 1-40 (high specificity) Kit (Cat#AL275C).
In a Perkin-Elmer White Optiplate-384 (Cat#6007290), 2 ul culture supernatants were combined with 2 μl of a 10× AlphaLISA Anti-hAβ Acceptor beads+Biotinylated Antibody Anti-Aβ 1-40 Mix ([…]/5 nM). After 1 hour room temperature incubation, 16 μl of a 1.25× preparation of Streptavidin (SA) Donor beads (25 μg/mL) were added and incubated for 30 minutes in the Dark. Light Emission at 615 nm was then recorded using EnVision-Alpha Reader. Levels of Aβ 40 in the culture supernatants were calculated as percentage of maximum signal (cells treated with 1% DMSO without inhibitor). The IC50 values were calculated using the Excel XLfit software.

For orientation: IC50 means the midpoint of a concentration-inhibition curve.

T1 sequence (P56817 46-501): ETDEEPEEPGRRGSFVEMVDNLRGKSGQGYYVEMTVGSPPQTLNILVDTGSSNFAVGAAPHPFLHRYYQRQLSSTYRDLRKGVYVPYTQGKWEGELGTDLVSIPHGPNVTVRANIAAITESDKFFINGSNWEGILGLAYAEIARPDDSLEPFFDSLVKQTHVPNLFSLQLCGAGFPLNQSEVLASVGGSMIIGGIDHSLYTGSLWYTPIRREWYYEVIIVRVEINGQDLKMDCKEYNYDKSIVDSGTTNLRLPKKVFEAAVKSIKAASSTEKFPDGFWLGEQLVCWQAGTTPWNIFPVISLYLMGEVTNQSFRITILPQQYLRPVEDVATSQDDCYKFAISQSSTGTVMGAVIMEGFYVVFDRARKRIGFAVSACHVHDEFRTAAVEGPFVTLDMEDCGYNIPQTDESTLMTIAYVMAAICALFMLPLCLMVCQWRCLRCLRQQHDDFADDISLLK

With `Cc1cc(F)cnc1C(=O)Nc1ccc(F)c([C@@]2(C)N=C(N)C(C)(C)[S@@]3(=O)=NCC[C@@H]23)n1` [Example 10AB, N-(6-((3aS,4R,8R)-6-amino-4,7,7-trimethyl-8-oxido-3,3a,4,7-tetrahydro-2H-isothiazolo[1,5-a][1,4]thiazin-4-yl)-5-fluoropyridin-2-yl)-5-fluoro-3-methylpicolinamide], the response vs control in vivo at 30 mg/kg in test [1] was 71%. For the same compound, the IC50 on BACE1 was 10 nM.
For `CC1(C)C(N)=N[C@](C)(c2nc(NC(=O)c3ncc(Cl)cc3Cl)ccc2F)[C@H]2CC(F)(F)CN=[S@@]21=O` [Example 40AA, N-(6-((4aR,5R,9R)-7-amino-3,3-difluoro-5,8,8-trimethyl-9-oxido-2,3,4,4a,5,8-hexahydro-[1,4]thiazino[2,1-f][1,2]thiazin-5-yl)-5-fluoropyridin-2-yl)-3,5-dichloropicolinamide], in that order: 77% and 4.9 nM.
Taken in the same sequence, the figures for `COc1cnc(C(=O)Nc2ccc(F)c([C@@]3(C)N=C(N)C(C)(C)[S@]4(=O)=NCCC[C@H]34)n2)cn1` [Example 2BA, N-(6-((4aR,5R,9S)-7-amino-5,8,8-trimethyl-9-oxido-2,3,4,4a,5,8-hexahydro-[1,4]thiazino[2,1-f][1,2]thiazin-5-yl)-5-fluoropyridin-2-yl)-5-methoxypyrazine-2-carboxamide] were 87% and 21.7 nM.
For `CC1(C)C(N)=N[C@](C)(c2nc(NC(=O)c3ncc(C#N)cc3Cl)ccc2F)[C@H]2CC(F)(F)CN=[S@@]21=O` [Example 37AA, N-(6-((4aR,5R,9R)-7-amino-3,3-difluoro-5,8,8-trimethyl-9-oxido-2,3,4,4a,5,8-hexahydro-[1,4]thiazino[2,1-f][1,2]thiazin-5-yl)-5-fluoropyridin-2-yl)-3-chloro-5-cyanopicolinamide], in that order: 73% and 1.6 nM.
Regarding `Cc1c(C(=O)Nc2ccc(F)c([C@@]3(C)N=C(N)C(C)(C)[S@@]4(=O)=NCCC[C@H]34)n2)nc2ccc(Cl)cn12` [Example 6AA, N-(6-((4aR,5R,9R)-7-amino-5,8,8-trimethyl-9-oxido-2,3,4,4a,5,8-hexahydro-[1,4]thiazino[2,1-f][1,2]thiazin-5-yl)-5-fluoropyridin-2-yl)-6-chloro-3-methylimidazo[1,2-a]pyridine-2-carboxamide], the response vs control in vivo at 30 mg/kg in test [1] was 103%. Besides, the half-maximal inhibitory concentration (IC50) on BACE1 worked out at 28.5 nM.
For `COc1cnc(C(=O)Nc2ccc(F)c([C@@]3(C)N=C(N)C(C)(C)[S@@]4(=O)=NCCC[C@H]34)n2)cn1` [Example 2AA, N-(6-((4aR,5R,9R)-7-amino-5,8,8-trimethyl-9-oxido-2,3,4,4a,5,8-hexahydro-[1,4]thiazino[2,1-f][1,2]thiazin-5-yl)-5-fluoropyridin-2-yl)-5-methoxypyrazine-2-carboxamide], in that order: 83% and 19.7 nM.
With `CC1(C)C(N)=N[C@](C)(c2nc(NC(=O)c3ncc(Cl)cc3Cl)ccc2F)[C@H]2CCCN=[S@@]21=O` [Example 3AA, N-(6-((4aR,5R,9R)-7-amino-5,8,8-trimethyl-9-oxido-2,3,4,4a,5,8-hexahydro-[1,4]thiazino[2,1-f][1,2]thiazin-5-yl)-5-fluoropyridin-2-yl)-3,5-dichloropicolinamide], the response vs control in vivo at 30 mg/kg in test [1] amounted to 76%. Further, the IC50 at BACE1 was determined as 1.3 nM.
Taken in the same sequence, the figures for `Cc1cc(Cl)cnc1C(=O)Nc1ccc(F)c([C@@]2(C)N=C(N)C(C)(C)[S@@]3(=O)=NCC(F)(F)C[C@H]23)n1` [Example 42AA, N-(6-((4aR,5R,9R)-7-amino-3,3-difluoro-5,8,8-trimethyl-9-oxido-2,3,4,4a,5,8-hexahydro-[1,4]thiazino[2,1-f][1,2]thiazin-5-yl)-5-fluoropyridin-2-yl)-5-chloro-3-methylpicolinamide] were 85% and 19.4 nM.
With `CC1(C)C(N)=N[C@](C)(c2nc(NC(=O)c3ccc(F)cn3)ccc2F)[C@@H]2CCN=[S@@]21=O` [Example 27AB, N-(6-((3aS,4R,8R)-6-amino-4,7,7-trimethyl-8-oxido-3,3a,4,7-tetrahydro-2H-isothiazolo[1,5-a][1,4]thiazin-4-yl)-5-fluoropyridin-2-yl)-5-fluoropicolinamide], the response vs control in vivo at 30 mg/kg in test [1] stood at 92%. In addition, at BACE1, the IC50 was 15 nM.
Taken in the same sequence, the figures for `CC1(C)C(N)=N[C@](C)(c2nc(NC(=O)c3ccc(OCF)cn3)ccc2F)[C@@H]2CCN=[S@@]21=O` [Example 13AB, N-(6-((3aS,4R,8R)-6-amino-4,7,7-trimethyl-8-oxido-3,3a,4,7-tetrahydro-2H-isothiazolo[1,5-a][1,4]thiazin-4-yl)-5-fluoropyridin-2-yl)-5-(fluoromethoxy)picolinamide] were 86% and 9.8 nM.
For `CC1(C)C(N)=N[C@](C)(c2nc(NC(=O)c3ncc(F)cc3Cl)ccc2F)[C@H]2CC(F)(F)CN=[S@@]21=O` [Example 41AA, N-(6-((4aR,5R,9R)-7-amino-3,3-difluoro-5,8,8-trimethyl-9-oxido-2,3,4,4a,5,8-hexahydro-[1,4]thiazino[2,1-f][1,2]thiazin-5-yl)-5-fluoropyridin-2-yl)-3-chloro-5-fluoropicolinamide], in that order: 78% and 30.4 nM.
Taken in the same sequence, the figures for `Cc1cc(C#N)cnc1C(=O)Nc1ccc(F)c([C@@]2(C)N=C(N)C(C)(C)[S@]3(=O)=NCCC[C@@H]23)n1` [Example 1BB, N-(6-((4aS,5R,9S)-7-amino-5,8,8-trimethyl-9-oxido-2,3,4,4a,5,8-hexahydro-[1,4]thiazino[2,1-f][1,2]thiazin-5-yl)-5-fluoropyridin-2-yl)-5-cyano-3-methylpicolinamide] were 93% and 3.9 nM.
As to `Cc1cc(F)cnc1C(=O)Nc1ccc(F)c([C@@]2(C)N=C(N)C(C)(C)[S@@]3(=O)=NCCC[C@H]23)n1` [Example 4AA, N-(6-((4aR,5R,9R)-7-amino-5,8,8-trimethyl-9-oxido-2,3,4,4a,5,8-hexahydro-[1,4]thiazino[2,1-f][1,2]thiazin-5-yl)-5-fluoropyridin-2-yl)-5-fluoro-3-methylpicolinamide], the response vs control in vivo at 30 mg/kg in test [1] came out at 80%. Also, the IC50 on BACE1 came to 18.1 nM.
For `CC1(C)C(N)=N[C@](C)(c2nc(NC(=O)c3ncc(F)cc3Cl)ccc2F)[C@@H]2CCN=[S@@]21=O` [Example 11AB, N-(6-((3aS,4R,8R)-6-amino-4,7,7-trimethyl-8-oxido-3,3a,4,7-tetrahydro-2H-isothiazolo[1,5-a][1,4]thiazin-4-yl)-5-fluoropyridin-2-yl)-3-chloro-5-fluoropicolinamide], in that order: 100% and 3.5 nM.
